Laboratory results published in patent US20240391965A1, “STAPLED ANTIMICROBIAL PEPTIDES (STAMPS) AND USES THEREOF” (Lytica Therapeutics, Inc., priority 2021, published 2024).
≈ marks a conversion by molar mass, not a printed value. Starred links: 1 amine or outer side, 2 acyl side, 3 side chain; linkers in the order of their positions; H or OH if unused. Positions of bridges follow the written chain, without caps; N, C: chain ends. Residues, ends and D or L forms follow the SMILES beside them. 2,2'Bipyridine(5,5'-diCH2) = c1cc(-c2ccc(C[*:2])cn2)ncc1C[*:1]; Naphthalene(2,6-diCH2) = c1cc2cc(C[*:2])ccc2cc1C[*:1]

How the values were obtained:
[1] = system: Acinetobacter baumannii (A. baumannii); format: cell-based; settings: microbroth dilution, 20-24 hours at 37° C.
Summary of the method: (§1)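 MIC = lowest peptide concentration without visible bacterial growth. CLSI-based microbroth dilution, MHB or MHB II, inoculum 5×10^5 CFU/ml, 20-24 h, 37 °C.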

[2] = system: Escherichia coli (E. coli); format: cell-based; settings: microbroth dilution, 20-24 hours at 37° C.
Summary of the method: as §1

[3] = system: Klebsiella pneumoniae (K. pneumoniae); format: cell-based; settings: microbroth dilution, 20-24 hours at 37° C.
Summary of the method: as §1

[4] = system: Pseudomonas aeruginosa (P. aeruginosa); format: cell-based; settings: microbroth dilution, 20-24 hours at 37° C.
Summary of the method: as §1

[5] = system: Staphylococcus aureus (S. aureus); format: cell-based; settings: microbroth dilution, 20-24 hours at 37° C.
Summary of the method: as §1

[6] = 90 minute cytotoxicity assay (LDH release), renal toxicity; format: cell-based; settings: 90 minutes of incubation, LDH release; read-out: Inhibitory Concentration at 50% Cytotoxicity (IC50) Human Renal Proximal Tubule Epithelial Cells (RPTEC)
Summary of the method: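 Released lactate dehydrogenase, read as absorbance at 490 nm after 10 min with assay reagent, serves as read-out. Renal proximal tubule epithelial cells received peptide serial dilutions or vehicle for 90 min at 37° C after overnight plating.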

[7] = 48 hours cytotoxicity assay (CellTiter-Glo), liver toxicity; format: cell-based, human; settings: 48 hours of incubation, CellTiter-Glo; read-out: Inhibitory Concentration at 50% Cytotoxicity (IC50) Human Liver Cells (HepG2)
Summary of the method: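 Viability from CellTiter-Glo luminescence after StAMP dilution series or vehicle acted on HepG2 cells for 48 h at 37 °C. Cells were grown in EMEM plus 10% FBS and given 4 h to attach before dosing.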

| Structure (SMILES) | Minimum Inhibitory Concentration (MIC) A. baumannii [1] | Minimum Inhibitory Concentration (MIC) E. coli [2] | Minimum Inhibitory Concentration (MIC) K. pneumoniae [3] | Minimum Inhibitory Concentration (MIC) P. aeruginosa [4] | Minimum Inhibitory Concentration (MIC) S. aureus [5] | IC50 [6] | IC50 [7] |
| --- | --- | --- | --- | --- | --- | --- | --- |
| CC[C@H](C)[C@H](NC(=O)[C@H](CC(C)C)NC(=O)[C@H](CC(C)C)NC(=O)[C@H](CC(N)=O)NC(=O)[C@H](CCCCN)NC(=O)[C@@H](NC(=O)[C@H](CCCCN)NC(=O)[C@H](CCCCN)NC(=O)[C@@H]1CSCc2ccc3cc(ccc3c2)CSC[C@H](N)C(=O)N[C@@H]([C@@H](C)CC)C(=O)N[C@@H](Cc2ccccc2)C(=O)N[C@@H](CO)C(=O)N[C@@H](CCCCN)C(=O)N[C@@H](CC(C)C)C(=O)N[C@@H](C)C(=O)N1)[C@@H](C)CC)C(=O)N[C@@H](CO)C(=O)NCC(=O)N[C@@H](CC(C)C)C(=O)N[C@@H](CCCCN)C(=O)NCC(N)=O [compound 50] (H-CIFSKLACKKIKNLLISGLKG-NH2; linker 1-8 via Naphthalene(2,6-diCH2); N-terminus assumed) | 8 µg/mL | 16 µg/mL | 32 µg/mL | >64 µg/mL | 64 µg/mL | 17 µg/mL (≈ 7 µM) | 103 µg/mL (≈ 42.4 µM) |
| CC[C@H](C)[C@H](NC(=O)[C@H](CC(C)C)NC(=O)[C@H](CC(C)C)NC(=O)[C@H](CC(N)=O)NC(=O)[C@H](CCCCN)NC(=O)[C@@H](NC(=O)[C@H](CCCCN)NC(=O)[C@@H]1CSCc2ccc3cc(ccc3c2)CSC[C@H](NC(=O)CN)C(=O)N[C@@H](Cc2ccccc2)C(=O)N[C@@H](CO)C(=O)N[C@@H](CCCCN)C(=O)N[C@@H](CC(C)C)C(=O)N[C@@H](C)C(=O)NCC(=O)N1)[C@@H](C)CC)C(=O)N[C@@H](CO)C(=O)NCC(=O)N[C@@H](CC(C)C)C(=O)N[C@@H](CCCCN)C(=O)NCC(N)=O [compound 52] (H-GCFSKLAGCKIKNLLISGLKG-NH2; linker 2-9 via Naphthalene(2,6-diCH2); N-terminus assumed) | 32 µg/mL | 32 µg/mL | >64 µg/mL | >64 µg/mL | >64 µg/mL | > 200 µg/mL | 10 µg/mL (≈ 4.34 µM) |
| CC[C@H](C)[C@H](NC(=O)CN)C(=O)N[C@H]1CSCc2ccc(nc2)-c2ccc(cn2)CSC[C@@H](C(=O)N[C@H](C(=O)N[C@@H](CCCCN)C(=O)N[C@@H](CC(N)=O)C(=O)N[C@@H](CC(C)C)C(=O)N[C@@H](CC(C)C)C(=O)N[C@H](C(=O)N[C@@H](CO)C(=O)NCC(=O)N[C@@H](CC(C)C)C(=O)N[C@@H](CCCCN)C(=O)NCC(N)=O)[C@@H](C)CC)[C@@H](C)CC)NC(=O)[C@H](CCCCN)NC(=O)CNC(=O)[C@H](C)NC(=O)[C@H](CC(C)C)NC(=O)[C@H](CCCCN)NC(=O)[C@H](CO)NC1=O [compound 54] (H-GICSKLAGKCIKNLLISGLKG-NH2; linker 3-10 via 2,2'Bipyridine(5,5'-diCH2); N-terminus assumed) | 8 µg/mL | 8 µg/mL | 16 µg/mL | 64 µg/mL | 64 µg/mL | 81 µg/mL (≈ 35.3 µM) | 43 µg/mL (≈ 18.7 µM) |
| CC[C@H](C)[C@H](NC(=O)CN)C(=O)N[C@H]1CSCc2ccc3cc(ccc3c2)CSC[C@@H](C(=O)N[C@H](C(=O)N[C@@H](CCCCN)C(=O)N[C@@H](CC(N)=O)C(=O)N[C@@H](CC(C)C)C(=O)N[C@@H](CC(C)C)C(=O)N[C@H](C(=O)N[C@@H](CO)C(=O)NCC(=O)N[C@@H](CC(C)C)C(=O)N[C@@H](CCCCN)C(=O)NCC(N)=O)[C@@H](C)CC)[C@@H](C)CC)NC(=O)[C@H](CCCCN)NC(=O)CNC(=O)[C@H](C)NC(=O)[C@H](CC(C)C)NC(=O)[C@H](CCCCN)NC(=O)[C@H](CO)NC1=O [compound 55] (H-GICSKLAGKCIKNLLISGLKG-NH2; linker 3-10 via Naphthalene(2,6-diCH2); N-terminus assumed) | 8 µg/mL | 8 µg/mL | 16 µg/mL | 32 µg/mL | 32 µg/mL | 23 µg/mL (≈ 10.1 µM) | 53 µg/mL (≈ 23.4 µM) |
| CC[C@H](C)[C@H](NC(=O)CN)C(=O)N[C@@H](Cc1ccccc1)C(=O)N[C@H]1CSCc2ccc(nc2)-c2ccc(cn2)CSC[C@@H](C(=O)N[C@@H](CCCCN)C(=O)N[C@@H](CC(N)=O)C(=O)N[C@@H](CC(C)C)C(=O)N[C@@H](CC(C)C)C(=O)N[C@H](C(=O)N[C@@H](CO)C(=O)NCC(=O)N[C@@H](CC(C)C)C(=O)N[C@@H](CCCCN)C(=O)NCC(N)=O)[C@@H](C)CC)NC(=O)[C@H](CCCCN)NC(=O)[C@H](CCCCN)NC(=O)CNC(=O)[C@H](C)NC(=O)[C@H](CC(C)C)NC(=O)[C@H](CCCCN)NC1=O [compound 57] (H-GIFCKLAGKKCKNLLISGLKG-NH2; linker 4-11 via 2,2'Bipyridine(5,5'-diCH2); N-terminus assumed) | 16 µg/mL | 16 µg/mL | >64 µg/mL | >64 µg/mL | >64 µg/mL | > 200 µg/mL | 103 µg/mL (≈ 43.4 µM) |
| CC[C@H](C)[C@H](NC(=O)CN)C(=O)N[C@@H](Cc1ccccc1)C(=O)N[C@H]1CSCc2ccc3cc(ccc3c2)CSC[C@@H](C(=O)N[C@@H](CCCCN)C(=O)N[C@@H](CC(N)=O)C(=O)N[C@@H](CC(C)C)C(=O)N[C@@H](CC(C)C)C(=O)N[C@H](C(=O)N[C@@H](CO)C(=O)NCC(=O)N[C@@H](CC(C)C)C(=O)N[C@@H](CCCCN)C(=O)NCC(N)=O)[C@@H](C)CC)NC(=O)[C@H](CCCCN)NC(=O)[C@H](CCCCN)NC(=O)CNC(=O)[C@H](C)NC(=O)[C@H](CC(C)C)NC(=O)[C@H](CCCCN)NC1=O [compound 58] (H-GIFCKLAGKKCKNLLISGLKG-NH2; linker 4-11 via Naphthalene(2,6-diCH2); N-terminus assumed) | 4 µg/mL | 16 µg/mL | 32 µg/mL | 64 µg/mL | >64 µg/mL | 131 µg/mL (≈ 55.9 µM) | 51 µg/mL (≈ 21.8 µM) |
| CC[C@H](C)[C@H](NC(=O)CN)C(=O)N[C@@H](Cc1ccccc1)C(=O)N[C@@H](CO)C(=O)N[C@@H](CCCCN)C(=O)N[C@@H](CC(C)C)C(=O)N[C@H]1CSCc2ccc3cc(ccc3c2)CSC[C@@H](C(=O)N[C@@H](CC(C)C)C(=O)N[C@H](C(=O)N[C@@H](CO)C(=O)NCC(=O)N[C@@H](CC(C)C)C(=O)N[C@@H](CCCCN)C(=O)NCC(N)=O)[C@@H](C)CC)NC(=O)[C@H](CC(N)=O)NC(=O)[C@H](CCCCN)NC(=O)[C@H]([C@@H](C)CC)NC(=O)[C@H](CCCCN)NC(=O)[C@H](CCCCN)NC(=O)CNC1=O [compound 87] (H-GIFSKLCGKKIKNCLISGLKG-NH2; linker 7-14 via Naphthalene(2,6-diCH2)) | 4 µg/mL | 4 µg/mL | 8 µg/mL | 8 µg/mL | 64 µg/mL | 44 µg/mL (≈ 18.7 µM) | 54 µg/mL (≈ 22.9 µM) |
| CC[C@H](C)[C@H](NC(=O)CN)C(=O)N[C@@H](Cc1ccccc1)C(=O)N[C@@H](CO)C(=O)N[C@@H](CCCCN)C(=O)N[C@@H](CC(C)C)C(=O)N[C@H]1CSCc2ccc(nc2)-c2ccc(cn2)CSC[C@@H](C(=O)N[C@@H](CC(C)C)C(=O)N[C@H](C(=O)N[C@@H](CO)C(=O)NCC(=O)N[C@@H](CC(C)C)C(=O)N[C@@H](CCCCN)C(=O)NCC(N)=O)[C@@H](C)CC)NC(=O)[C@H](CC(N)=O)NC(=O)[C@H](CCCCN)NC(=O)[C@H]([C@@H](C)CC)NC(=O)[C@H](CCCCN)NC(=O)[C@H](CCCCN)NC(=O)CNC1=O [compound 89] (H-GIFSKLCGKKIKNCLISGLKG-NH2; linker 7-14 via 2,2'Bipyridine(5,5'-diCH2)) | 4 µg/mL | 4 µg/mL | 16 µg/mL | 32 µg/mL | >64 µg/mL | 80 µg/mL (≈ 33.5 µM) | 62 µg/mL (≈ 26 µM) |
